The results in this text go back to ChEMBL document CHEMBL1201862, “PubChem BioAssay data set” (2004).

Among the test systems are HCT-116; HL-60; OVCAR-5; COLO 205; HCT-15; OVCAR-3; UO-31; SN12C; SNB-75; SF-539; Malme-3M; HT-29; OVCAR-4; XF498; UACC-257; SNB-78; KM-20L2; HOP-62; MOLT-4; MCF7.
Common to all, as to test: NCI tumour cell line growth inhibition, 48 h

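Five compound concentrations were applied to cells in 96-well plates for 48 hours; endpoints were derived by simple linear interpolation of the resulting dose-response curve. GI50 = concentration required for 50% inhibition of growth.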 Active and inactive are the calls of the source. No stated cut-off is given here; in the data, active = GI50 up to about 1.1 µM and inactive = higher.

As for `C#CC(C)(C)OCCCCOc1cc(O)c2c(=O)c3ccccc3n(C)c2c1`, the GI50 with HCT-116 is > 100 µM (inactive); in the test with HL-60 it was > 100 µM (inactive); with OVCAR-5 it was > 100 µM (inactive); in the test on COLO 205, 23.7 µM (inactive); in the test on HCT-15, over 100 µM; with OVCAR-3, > 100 µM (inactive). Also, the GI50 with UO-31 is > 100 µM (inactive); in the test with SN12C, > 100 µM (inactive); in the test on SNB-75, 84.5 µM (inactive); with SF-539 it was > 100 µM (inactive); in the test with Malme-3M, > 100 µM (inactive); in the test on HT-29, 21.7 µM (inactive). Moreover, the GI50 in the test on OVCAR-4 was > 100 µM (inactive); in the test on XF498 it was > 100 µM (inactive); in the test on UACC-257, > 100 µM (inactive); with SNB-78, > 100 µM (inactive); with KM-20L2, 31.3 µM (inactive); with HOP-62, > 100 µM (inactive).
Consider `C=CCCN1CCc2c([nH]c3ccccc23)C1C(=O)O` (stereo not given), for which the GI50 in the test with HCT-116 was > 100 µM (inactive); in the test on HL-60, 93.1 µM (inactive); in the test on OVCAR-5 it was > 100 µM (inactive); in the test with COLO 205, > 100 µM (inactive); in the test with MOLT-4, > 100 µM (inactive); in the test with OVCAR-3 it was > 100 µM (inactive). Also, the GI50 is > 100 µM (inactive) in the test on UO-31; > 100 µM (inactive) in the test with SN12C; 26.9 µM (inactive) with SNB-75; > 100 µM (inactive) in the test with SF-539; > 100 µM (inactive) with Malme-3M; > 100 µM (inactive) in the test with HT-29. The GI50 in the test on OVCAR-4, with XF498, with UACC-257, in the test on SNB-78, in the test on KM-20L2 and in the test on HOP-62 was > 100 µM (inactive) throughout.
Take `O=c1nc(NC(c2ccccc2)(c2ccccc2)c2ccccc2)ccn1CCCl`: the GI50 in the test on HCT-116 is 18.8 µM (inactive); in the test on HL-60, 22.8 µM (inactive); with OVCAR-5 it was 27.5 µM (inactive); in the test with COLO 205 it was 25.6 µM (inactive); in the test on HCT-15, 35.4 µM; with MOLT-4 it was 16.2 µM (inactive). The GI50 in the test with OVCAR-3 is 13.2 µM (inactive); in the test with UO-31 it was 47.6 µM (inactive); in the test with SN12C it was 17.9 µM (inactive); in the test on SNB-75, 17.6 µM (inactive); in the test on SF-539, 17.8 µM (inactive); with Malme-3M it was 14.6 µM (inactive). Besides, the GI50 with HT-29 was 17 µM (inactive); with OVCAR-4, 20.6 µM (inactive); in the test on XF498, 14.1 µM (inactive); in the test on UACC-257 it was > 10 µM (inactive); with SNB-78 it was 29.2 µM (inactive); with KM-20L2, 16.4 µM (inactive). Further, the GI50 in the test on HOP-62 is 21.5 µM (inactive).
Take `CC(=O)NNc1nc(C)c(C(=O)NNC(=O)C(=O)Nc2ccc([N+](=O)[O-])cc2C#N)s1`: the GI50 in the test on HCT-116 was > 100 µM (inactive); with HL-60 it was > 100 µM (inactive); with OVCAR-5, > 100 µM (inactive); with COLO 205, > 100 µM (inactive); in the test on HCT-15 it was over 100 µM; with MOLT-4, 38.5 µM (inactive). The GI50 in the test with OVCAR-3 is 63.5 µM (inactive); with UO-31, > 100 µM (inactive); with SN12C, > 100 µM (inactive); with SF-539 it was > 100 µM (inactive); in the test with Malme-3M, > 100 µM (inactive); in the test on HT-29, > 100 µM (inactive). Further, the GI50 in the test on OVCAR-4 is 45.3 µM (inactive); in the test on XF498, > 100 µM (inactive); in the test with UACC-257, > 100 µM (inactive); in the test with SNB-78, > 100 µM (inactive); in the test with KM-20L2, > 100 µM (inactive); in the test with HOP-62, > 100 µM (inactive).
Take `CC(=O)OCc1c(C)c2ccccc2n1C(C)=O`: the GI50 was 44.5 µM (inactive) in the test with HCT-116; 23.9 µM (inactive) with HL-60; > 100 µM (inactive) in the test on OVCAR-5; 44.2 µM (inactive) with COLO 205; 29.7 µM (inactive) with MOLT-4; 26.7 µM (inactive) in the test with OVCAR-3. Also, the GI50 is > 100 µM (inactive) with UO-31; 35.7 µM (inactive) in the test on SN12C; 82.6 µM (inactive) in the test with SNB-75; 38.2 µM (inactive) with SF-539; 25 µM (inactive) in the test with Malme-3M; 59.2 µM (inactive) in the test with HT-29. In addition, the GI50 is 32.1 µM (inactive) in the test on OVCAR-4; 26.5 µM (inactive) with XF498; 30.3 µM (inactive) with UACC-257; 53 µM (inactive) in the test on KM-20L2; 63.1 µM (inactive) in the test on HOP-62.
For `COc1ccc(CCn2cncn2)cc1`, the GI50 in the test on HCT-116 was > 100 µM (inactive); with HL-60, > 100 µM (inactive); with OVCAR-5, > 100 µM (inactive); in the test with COLO 205 it was > 100 µM (inactive); in the test with HCT-15, over 100 µM; with MOLT-4 it was > 100 µM (inactive). Further, the GI50 with OVCAR-3, in the test with UO-31, with SN12C, in the test with SNB-75, in the test with SF-539 and with HT-29 was > 100 µM (inactive) each time. Besides, the GI50 in the test on OVCAR-4, in the test with UACC-257, with SNB-78, in the test on KM-20L2 and in the test on HOP-62 was > 100 µM (inactive) in each case.
`CC1=C2C3OC(=O)C(C)C3CCC2(C)C=C/C1=N\c1ccccc1` (stereo not given): the GI50 is > 100 µM (inactive) in the test on HCT-116; > 100 µM (inactive) in the test on HL-60; > 100 µM (inactive) in the test on OVCAR-5; > 100 µM (inactive) in the test with COLO 205; over 100 µM in the test with HCT-15; > 100 µM (inactive) in the test with MOLT-4. Also, the GI50 was > 100 µM (inactive) in the test on OVCAR-3; > 100 µM (inactive) with MCF7; > 100 µM (inactive) with UO-31; > 100 µM (inactive) with SN12C; > 53.3 µM (inactive) with SNB-75; > 100 µM (inactive) with SF-539. In addition, the GI50 in the test on Malme-3M, with HT-29, in the test with OVCAR-4, in the test on UACC-257, in the test on SNB-78 and with KM-20L2 was > 100 µM (inactive) each time. For the same molecule, the GI50 in the test on HOP-62 was > 100 µM (inactive).
With `Cc1cc(C(=O)NCCN(C)C)c2nc3ccccc3cc2c1`, the GI50 in the test with HCT-116 was 0.904 µM (active); in the test with HL-60, 0.871 µM (active); in the test on OVCAR-5 it was 1.98 µM (inactive); in the test on COLO 205, 1.1 µM (active); with HCT-15, 1.65 µM; in the test with MOLT-4 it was 0.381 µM (active). The GI50 is 2.38 µM (inactive) with OVCAR-3; 1.55 µM (inactive) in the test with MCF7; 1.42 µM (inactive) in the test on UO-31; 1.59 µM (inactive) in the test on SN12C; 3.13 µM (inactive) in the test with SNB-75; 3.76 µM (inactive) in the test with SF-539. The GI50 was 1.6 µM (inactive) in the test with Malme-3M; 1.13 µM (inactive) in the test on HT-29; 3.02 µM (inactive) in the test with OVCAR-4; 1.42 µM (inactive) in the test with XF498; 2.07 µM (inactive) in the test with UACC-257; 4.45 µM (inactive) in the test with SNB-78. In addition, the figures for the GI50 with KM-20L2 and in the test on HOP-62 were 0.729 µM (active) and 1.68 µM (inactive), respectively.
Turning to `CN1C(=O)CCC1c1ccc2c(c1)oc(=O)n2C` (stereo not given), the GI50 in the test with HCT-116 was > 100 µM (inactive); in the test with HL-60, > 100 µM (inactive); in the test on OVCAR-5, > 100 µM (inactive); in the test with COLO 205 it was > 100 µM (inactive); in the test with HCT-15, over 100 µM; with MOLT-4, > 100 µM (inactive). Besides, the GI50 in the test with UO-31, with SN12C, in the test with SNB-75, in the test with SF-539, in the test on Malme-3M and with HT-29 was > 100 µM (inactive) each time. Moreover, the GI50 in the test on OVCAR-4, in the test with XF498, in the test with UACC-257, with SNB-78, in the test with KM-20L2 and with HOP-62 was > 100 µM (inactive) throughout.
On to `CCN(CC)c1cccc2c1/C(=N/O)CCCC2`, for which the GI50 in the test on HCT-116 was 92.3 µM (inactive); in the test with HL-60 it was > 100 µM (inactive); in the test with COLO 205, > 100 µM (inactive); with HCT-15 it was over 100 µM; in the test on MOLT-4, 65.8 µM (inactive); with UO-31, > 100 µM (inactive). In addition, the GI50 in the test on SN12C was > 100 µM (inactive); with SNB-75, 84.1 µM (inactive); with Malme-3M, > 100 µM (inactive); with HT-29, 97.1 µM (inactive); in the test on OVCAR-4, > 100 µM (inactive); with XF498 it was > 100 µM (inactive). Moreover, the GI50 in the test on UACC-257 is 65 µM (inactive); in the test on SNB-78, > 100 µM (inactive); in the test on KM-20L2 it was > 100 µM (inactive); with HOP-62 it was > 100 µM (inactive).
On to `O=C1C=CC(=O)c2c(Cl)ccc(O)c21`, for which the GI50 was 9.79 µM (inactive) in the test with HCT-116; 2.96 µM (inactive) in the test with HL-60; > 54.1 µM (inactive) in the test with OVCAR-5; 13.1 µM (inactive) with COLO 205; 17.8 µM in the test with HCT-15; 4.54 µM (inactive) in the test with MOLT-4. The GI50 with OVCAR-3 was 15.6 µM (inactive); with MCF7, 13.9 µM (inactive); with UO-31 it was > 100 µM (inactive); with SN12C it was 21.1 µM (inactive); in the test on SNB-75, 28.5 µM (inactive); with SF-539 it was > 42.3 µM (inactive). For the same molecule, the GI50 with Malme-3M was 18.7 µM (inactive); in the test with HT-29 it was 21.6 µM (inactive); in the test on OVCAR-4, 18.5 µM (inactive); in the test with XF498 it was 17.5 µM (inactive); in the test with UACC-257, 16.1 µM (inactive); in the test on SNB-78, 22 µM (inactive). For the same molecule, the GI50 was 13.8 µM (inactive) in the test with KM-20L2 and > 100 µM (inactive) in the test on HOP-62.
